The data set is described as follows: Drug release assay (hydrolysis rate test in pH 7.4 / pH 2.0 buffer, HPLC). In kind it is physicochemical. The note with it: for Hydrolysis constant Kh pH 2.0 / Hydrolysis constant Kh pH 7.4: Kh=-ln[100%-Release rate (%)]/t; for Release rate (%) pH 2.0 (6 h): pH 2.0 buffer solution; for Release rate (%) pH 2.0 (6 h) / Release rate (%) pH 7.4 (0.5 h) / Release rate (%) pH 7.4 (6 h): 37° C., 200 rpm, residual content relative to 0 h by HPLC; for Release rate (%) pH 7.4 (0.5 h) / Release rate (%) pH 7.4 (6 h): pH 7.4 buffer solution. On the procedure: Preparation of pH2.0 Buffer Solution
Preparation of pH7.4 Buffer Solution
Method of Hydrolysis Rate Test
The compounds were dissolved in pH7.4/pH2.0 buffer solution, placed in a constant temperature shaker at 37° C. and 200 rpm, and sampled at 0 h, 0.5 h and 6 h respectively. The residual contents of the compounds relative to 0 h were tested at each time point.
The release rates (%) were calculated using the following equation: Release rate (%)=[A(0h)−A(xh)]/A(0h)×100%, (x=0, 0.5, 6), A(xh) is the peak area of compounds tested by HPLC at the indicated time point.
The hydrolysis constants (Kh) were calculated using the following equation: Hydrolysis constant Kh=−ln[100%−Release rate (%)]/t Results

For the molecule `O=C(OCn1cc(F)c(=O)[nH]c1=O)Oc1ccc(C2CCN(CC34CC5CC(CC(C5)C3)C4)CC2)cc1` [Example 8, 4-(1-(Adamantan-1-ylmethyl)piperidin-4-yl)phenyl ((5-fluoro-2,4-dioxo-3,4-dihydropyrimidin-1(2H)-yl)methyl) carbonate], the “Hydrolysis constant Kh pH 2.0” value turned out to be 0.041, the “Release rate (%) pH 2.0 (6 h)” value came to 22%, the “Hydrolysis constant Kh pH 7.4” value was determined as 11.043 and the “Release rate (%) pH 7.4 (0.5 h)” value is listed as 99.6%. Moreover, the “Release rate (%) pH 7.4 (6 h)” value is reported as 99%.
For `Cc1cc(C)cc(N2CCC(c3ccc(OC(=O)OCn4cc(F)c(=O)[nH]c4=O)cc3)CC2)c1` [Example 4, 4-(1-(3,5-Dimethylphenyl)piperidin-4-yl)phenyl ((5-fluoro-2,4-dioxo-3,4-dihydropyrimidin-1(2H)-yl)methyl) carbonate] the same measures were 0.039, 21%, 3.509, 82.7% and 98%.
Take `COc1cccc2c1C(=O)c1c(O)c3c(c(O)c1C2=O)C[C@@](O)(C(C)=O)C[C@@H]3O[C@H]1C[C@H](NC(=O)Oc2ccc(CN3CCN(C)CC3)cc2)[C@H](OC(C)=O)[C@H](C)O1` [Example 23, (2S,3S,4S,6R)-6-(((1S,3S)-3-acetyl-3,5,12-trihydroxy-10-methoxy-6,11-dioxo-1,2,3,4,6,11-hexahydrotetracen-1-yl)oxy)-2-methyl-4-(((4-((4-methylpiperazin-1-yl)methyl)phenoxy)carbonyl)amino)tetrahydro-2H-pyran-3-yl acetate]: the “Hydrolysis constant Kh pH 2.0” value is on record as 0.004, the “Release rate (%) pH 2.0 (6 h)” value stood at 2.5%, the “Hydrolysis constant Kh pH 7.4” value is given as 0.149 and the “Release rate (%) pH 7.4 (0.5 h)” value is 7.2%. Besides, the “Release rate (%) pH 7.4 (6 h)” value amounted to 70.8%.
On the same counts, the results for `CCCCN(CCCC)c1ccc(N2CCC(CCOC(=O)n3cc(F)c(=O)[nH]c3=O)CC2)cc1` [Example 11, 2-(1-(4-(Dibutylamino)phenyl)piperidin-4-yl)ethyl 5-fluoro-2,4-dioxo-3,4-dihydropyrimidine-1(2H)-carboxylate] are 0.067, 33%, 0.117, 5.7% and 83%.
In the case of `Cn1nnc2c(C(=O)NCc3ccc(CC4CCN(C(c5ccccc5)c5ccccc5)CC4)cc3)ncn2c1=O` [Example 22, N-(4-((1-benzhydrylpiperidin-4-yl)methyl)benzyl)-3-methyl-4-oxo-3,4-dihydroimidazo[5,1-d][1,2,3,5]tetrazine-8-carboxamide], the “Hydrolysis constant Kh pH 2.0” value is recorded as less than 0.001, the “Release rate (%) pH 2.0 (6 h)” value was 0%, the “Hydrolysis constant Kh pH 7.4” value stood at 0.267 and the “Release rate (%) pH 7.4 (0.5 h)” value was 12.5%. For the same molecule, the “Release rate (%) pH 7.4 (6 h)” value was found to be 85.4%.
On the same counts, the results for `CCCc1ccc(N2CCC(Cc3ccc(OC(=O)OCn4cc(F)c(=O)[nH]c4=O)cc3)CC2)cc1` [Example 6, (5-Fluoro-2,4-dioxo-3,4-dihydropyrimidin-1(2H)-yl)methyl (4-((1-(4-propylphenyl)piperidin-4-yl)methyl)phenyl) carbonate] are 0.033, 18%, 3.521, 82.8% and 75%.

The values above are taken from patent US12729186B2, “Prodrugs for sustained releasing therapeutic agents and uses thereof” (LIANGJIANG MEDICINE CO., LTD., priority 2020, dated 2026).
